Data set [1] has as its target ACE (Homo sapiens, UniProt P12821). Nature of the data set: Lineweaver–Burk plot and secondary plot (ACE inhibition kinetics). The class given is biochemical. The conditions noted are these: secondary plot from Lineweaver–Burk plots; substrate HHL 0.625 to 20 mM. The protocol:
The inhibition pattern of the peptides against ACE was analyzed using Lineweaver–Burk plots. ACE activity was measured at varying concentrations of each peptide (IGDEPRHQYL: 0, 5, and 10 µM; IVGRPLANG: 0, 20, and 40 µM) in the presence of different concentrations of the substrate hippuryl-histidyl-leucine (HHL), ranging from 0.625 to 20 mM. The Michaelis constant (Km) and maximum reaction velocity (Vmax) were calculated from the slope and y-intercept of the Lineweaver–Burk plots. Additionally, secondary plots were generated to determine the inhibition constant (Ki) values for each peptide based on the derived Km and Vmax values.

Data set [2] concerns the target T1, angiotensin-converting enzyme (ACE) (Homo sapiens, UniProt P12821).
T1 construct: purchased Dojindo Laboratories, Kumamoto, Japan
The experiment in a line: ACE-inhibitory activity, ACE Kit-WST (Dojindo). The class given is biochemical. The conditions noted are these: peptide 0.01-1000 µM, 37 °C 1 h, absorbance 450 nm, triplicate, read-out: IC50 (ACE inhibition). On the procedure:
The ACE-inhibitory activity of the peptides was evaluated in vitro using the Dojindo assay kit, following the same procedure as described in our previous study. […] Captopril was used as a positive control to validate the assay system. To assess the stability of the peptides under simulated gastrointestinal (GI) conditions, a two-step enzymatic hydrolysis was conducted. The ACE-inhibitory activity of the peptides was measured both before and after digestion (Figure 1B,C).
The ACE-inhibitory activity of the peptides was assessed using the ACE Kit-WST (Dojindo Laboratories, Kumamoto, Japan) following the manufacturer’s protocol. Both peptides were dissolved in distilled water, and serial dilutions were prepared at concentrations of 0.01, 0.10, 1, 10, 100, and 1000 µM. Captopril was used as the positive control. For the assay, 20 µL of each sample solution was added to the designated wells, including the sample, blank 1, and blank 2 wells. Subsequently, 20 µL of substrate buffer was added to all wells. […] Absorbance was measured at 450 nm using a microplate reader. ACE-inhibitory activity was calculated using the following equation:ACE inhibition (%) = (Ablank1 − Asample)/(Ablank1 − Ablank2) × 100 where Ablank1 is the absorbance of the control (without inhibitor), Ablank2 is the absorbance of the reagent alone, and Asample is the absorbance of the peptide-treated sample.

In data set [3] the test system is pepsin, trypsin and chymotrypsin. Nature of the data set: Resistance to simulated GI digestion assay. Type of data set: in vitro ADME. The conditions noted are these: peptide 100 and 200 µM; pepsin 0.01% pH 2.0, 37 °C, 3 h, then trypsin and chymotrypsin each 0.01% pH 7.5, 3 h; read-out ACE-inhibitory activity; triplicate. The protocol: The stability of the synthesized peptides against gastrointestinal proteases was evaluated using a slightly modified method based on Dong et al. (2024). Peptide solutions at concentrations of 100 and 200 µM were sequentially subjected to enzymatic digestion. Initially, the peptides were incubated with pepsin (0.01%, pH 2.0) at 37 °C for 3 h. This was followed by a second digestion step with trypsin and chymotrypsin (each at 0.01%, pH 7.5) for an additional 3 h under the same temperature conditions. To terminate enzymatic activity, the reaction mixtures were boiled for 10 min. The samples were then centrifuged at 8000× g for 15 min, and the resulting supernatants were collected. The ACE-inhibitory activity of the digested peptide solutions was subsequently analyzed to assess their enzymatic stability.

Peptide text beside a SMILES is read from it.

Sequence of ACE (P12821 30-1306, species assumed): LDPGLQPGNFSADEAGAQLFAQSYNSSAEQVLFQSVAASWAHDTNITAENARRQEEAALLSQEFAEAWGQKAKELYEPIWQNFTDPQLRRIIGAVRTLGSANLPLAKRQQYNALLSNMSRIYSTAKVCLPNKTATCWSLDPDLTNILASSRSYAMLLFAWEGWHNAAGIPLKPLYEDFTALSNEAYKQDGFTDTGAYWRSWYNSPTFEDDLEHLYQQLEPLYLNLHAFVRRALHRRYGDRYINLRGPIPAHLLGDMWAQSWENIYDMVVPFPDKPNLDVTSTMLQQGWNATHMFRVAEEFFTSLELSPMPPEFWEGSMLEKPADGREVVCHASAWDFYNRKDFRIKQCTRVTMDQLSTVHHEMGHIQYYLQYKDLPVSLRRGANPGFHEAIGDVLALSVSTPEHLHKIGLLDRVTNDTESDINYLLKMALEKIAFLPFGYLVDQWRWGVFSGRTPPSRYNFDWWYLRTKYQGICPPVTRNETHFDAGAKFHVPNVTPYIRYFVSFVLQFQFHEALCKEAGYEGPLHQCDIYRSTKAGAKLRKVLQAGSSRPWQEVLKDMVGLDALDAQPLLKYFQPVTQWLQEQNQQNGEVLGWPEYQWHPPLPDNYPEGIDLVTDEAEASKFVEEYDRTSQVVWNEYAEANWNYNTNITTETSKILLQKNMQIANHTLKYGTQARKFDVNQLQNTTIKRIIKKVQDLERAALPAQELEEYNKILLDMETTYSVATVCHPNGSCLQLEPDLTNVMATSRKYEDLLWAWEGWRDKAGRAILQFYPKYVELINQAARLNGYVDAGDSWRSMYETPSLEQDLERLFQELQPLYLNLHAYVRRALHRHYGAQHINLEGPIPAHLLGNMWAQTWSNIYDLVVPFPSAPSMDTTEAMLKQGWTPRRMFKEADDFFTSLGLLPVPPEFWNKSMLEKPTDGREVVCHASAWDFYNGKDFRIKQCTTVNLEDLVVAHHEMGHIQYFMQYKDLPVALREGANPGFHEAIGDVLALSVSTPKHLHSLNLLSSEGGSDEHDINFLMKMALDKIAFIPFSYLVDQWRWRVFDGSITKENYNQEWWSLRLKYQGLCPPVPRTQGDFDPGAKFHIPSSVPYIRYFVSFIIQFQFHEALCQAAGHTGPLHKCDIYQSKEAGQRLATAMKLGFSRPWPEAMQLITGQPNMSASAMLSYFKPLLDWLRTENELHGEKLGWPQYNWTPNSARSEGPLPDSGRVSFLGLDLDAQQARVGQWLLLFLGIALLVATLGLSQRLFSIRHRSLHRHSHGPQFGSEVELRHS
T1 sequence (P12821 30-1306, species assumed): as above

For the compound `CC[C@H](C)[C@H](N)C(=O)NCC(=O)N[C@@H](CC(=O)O)C(=O)N[C@@H](CCC(=O)O)C(=O)N1CCC[C@H]1C(=O)N[C@@H](CCCNC(=N)N)C(=O)N[C@@H](Cc1c[nH]cn1)C(=O)N[C@@H](CCC(N)=O)C(=O)N[C@@H](Cc1ccc(O)cc1)C(=O)N[C@@H](CC(C)C)C(=O)O` [IGDEPRHQYL] (H-IGDEPRHQYL-OH), the affinity in data set [1], expressed as Ki, was 5.46 µM. In addition, in data set [2], the half-inhibitory concentration (IC50) stood at 5.68 µM. Moreover, the “ACE-inhibitory activity before and after simulated GI digestion” value in data set [3] was “retained their ACE-inhibitory activity”.
Taken in the same sequence, the figures for `CC[C@H](C)[C@H](N)C(=O)N[C@H](C(=O)NCC(=O)N[C@@H](CCCNC(=N)N)C(=O)N1CCC[C@H]1C(=O)N[C@@H](CC(C)C)C(=O)N[C@@H](C)C(=O)N[C@@H](CC(N)=O)C(=O)NCC(=O)O)C(C)C` [IVGRPLANG] (H-IVGRPLANG-OH) were 51.4 µM, 23.8 µM and “retained their ACE-inhibitory activity”.

For orientation: Ki means a dissociation constant, usually derived from enzyme kinetics or from competition with a known ligand. As a reminder, the IC50 is the midpoint of a concentration-inhibition curve.

The values are drawn from PMC12298423, “Characterization of Novel ACE-Inhibitory Peptides from Nemopilema nomurai Jellyfish Venom Hydrolysate: In Vitro and In Silico Approaches” (Marine Drugs, 2025).
